Test results as given in US20050233470A1, “Methods and compound mixtures for determining protein activity using nmr spectroscopy” (priority 2002, published 2005).

Conditions: rat, in vivo
Procedure: Urine samples were collected immediately before administration and then at 1 h and 2.5 h after administration. […] Blood samples were collected immediately before administration and then at 1, 2 and 3 h after administration. After collection, blood samples were spun down at 2000 rpm for 10 min. and the plasma was collected. Both, plasma and urine samples were frozen at −20° C.
Aliquots of the stock solution ([…]) were mixed with 40 μl biofluid (urine or blood plasma) to give a 15 mM trityl radical solution. These solutions were dispensed as droplets into liquid nitrogen to provide the material as vitrified pellets suitable for hyperpolarisation. The solid samples were placed in turn within the DNP magnet and hyperpolarised overnight. The samples were dissolved by injection of a mixture of methanol and acetic acid (100:1). The dissolved samples were quickly manually transferred (approx. 4 s transfer time) to a high-resolution magnet of 9.4 T and single acquisition ^13C-1D-NMR-spectra were acquired.
Quantification of the unknown amount of probe compound/metabolites in the biofluid samples was based on these enhancements and the known amount of probe compound/metabolite used to generate them. […]

Structure (SMILES)	Signals present in NMR spectrum of urine sample
N=C(N)N1Cc2ccccc2C(O)C1 (centres unmarked) [4-OH-Debrisoquine, 4-hydroxy-debrisoquine]	present
N=[13C](N)N1CCc2ccccc2C1 [Debrisoquine]	present
